Laboratory results as given in the supplement of paper PMC4862054.

Experiments:
CAL-148 [1] = experiment: drug sensitivity score (DSS), CellTox Green (DSS (AUC-based score)); higher = stronger drug effect (viability inhibition or cytotoxicity); extreme values may be limits of the assay; settings: incubation time: 72 h
Summary of the method: (§1)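 Compound was dispensed into 384-well plates at 5 concentrations in 10-fold steps spanning a 10,000-fold range chosen for each compound, and 20 µl of breast cancer cell suspension was added before 72 h of incubation. CellTox Green fluorescence was read at 485/520 nm, followed by CellTiter-Glo luminescence after 10 min at room temperature. Values on each plate were normalised to 0.1 % DMSO and a positive kill control. The drug sensitivity score came from the area under the fitted dose-response curve.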

MFM-223 [2] = experiment: as above; settings: incubation time: 72 h
Summary of the method: as §1

MDA-MB-231 [3] = experiment: as above; settings: incubation time: 72 h
Summary of the method: as §1

HCC1599 [4] = experiment: as above; settings: incubation time: 72 h
Summary of the method: as §1

MDA-MB-453 [5] = experiment: as above; settings: incubation time: 72 h
Summary of the method: as §1

CAL-51 [6] = experiment: as above; settings: incubation time: 72 h
Summary of the method: as §1

Hs578T [7] = experiment: as above; settings: incubation time: 72 h
Summary of the method: as §1

DU-4475 [8] = experiment: as above; settings: incubation time: 72 h
Summary of the method: as §1

HDQ-P1 [9] = experiment: as above; settings: incubation time: 72 h
Summary of the method: as §1

CAL-148 [10] = experiment: normalised viability (% of control), CellTiter-Blue; higher = more viable cells (about 100 = DMSO control); settings: 10 nM; incubation time: 72 h
Experimental: (§2)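 DSRT, CellTiter-Blue viability, 72 h incubation. Signal is normalised to DMSO and benzethonium chloride controls. Value is the normalised response at dose 3.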

MFM-223 [11] = experiment: as above; settings: 100 nM; incubation time: 72 h
Experimental: as §2

MDA-MB-231 [12] = experiment: as above; settings: 100 nM; incubation time: 72 h
Experimental: as §2

HCC1143 = experiment: as above; settings: 100 nM; incubation time: 72 h
Experimental: as §2

HCC1599 [13] = experiment: as above; settings: 100 nM; incubation time: 72 h
Experimental: as §2

MDA-MB-436 = experiment: as above; settings: 100 nM; incubation time: 72 h
Experimental: as §2

BT-549 [14] = experiment: as above; settings: 100 nM; incubation time: 72 h
Experimental: as §2

HCC1937 = experiment: as above; settings: 100 nM; incubation time: 72 h
Experimental: as §2

CAL-85-1 = experiment: as above; settings: 10 nM; incubation time: 72 h
Experimental: as §2

BT-474 = experiment: as above; settings: 100 nM; incubation time: 72 h
Experimental: as §2

MDA-MB-453 [15] = experiment: as above; settings: 10 nM; incubation time: 72 h
Experimental: as §2

CAL-51 [16] = experiment: as above; settings: 10 nM; incubation time: 72 h
Experimental: as §2

SK-BR-3 = experiment: as above; settings: 100 nM; incubation time: 72 h
Experimental: as §2

Hs578T [17] = experiment: as above; settings: 100 nM; incubation time: 72 h
Experimental: as §2

CAL-120 [18] = experiment: as above; settings: 100 nM; incubation time: 72 h
Experimental: as §2

DU-4475 [19] = experiment: as above; settings: 10 nM; incubation time: 72 h
Experimental: as §2

HDQ-P1 [20] = experiment: as above; settings: 10 nM; incubation time: 72 h
Experimental: as §2

MDA-MB-468 = experiment: as above; settings: 100 nM; incubation time: 72 h
Experimental: as §2

CAL-120 [21] = experiment: normalised viability (% of control), CellTiter-Blue; higher = more viable cells (about 100 = DMSO control); settings: incubation time: 72 h
Summary of the method: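 Each entry is normalised viability at a single listed concentration within a series. It comes from breast cancer cell lines incubated 72 h with compound in 384-well plates, then measured with CellTiter-Blue fluorescence at 560/590 nm. Every plate was normalised between vehicle (100) and a positive kill control (0).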

BT-549 [22] = experiment: drug sensitivity score (DSS), CellTox Green (DSS (AUC-based score)); higher = stronger drug effect (viability inhibition or cytotoxicity); extreme values may be limits of the assay; settings: incubation time: 72 h
Summary of the method: as §1

Row | SMILES | drug sensitivity score (CAL-148 [1]) | drug sensitivity score (MFM-223 [2]) | drug sensitivity score (MDA-MB-231 [3]) | drug sensitivity score (HCC1599 [4]) | drug sensitivity score (MDA-MB-453 [5]) | drug sensitivity score (CAL-51 [6]) | drug sensitivity score (Hs578T [7]) | drug sensitivity score (DU-4475 [8]) | drug sensitivity score (HDQ-P1 [9]) | normalised viability (CAL-148 [10]) | normalised viability (MFM-223 [11]) | normalised viability (MDA-MB-231 [12]) | normalised viability (HCC1143) | normalised viability (HCC1599 [13]) | normalised viability (MDA-MB-436) | normalised viability (BT-549 [14]) | normalised viability (HCC1937) | normalised viability (CAL-85-1) | normalised viability (BT-474) | normalised viability (MDA-MB-453 [15]) | normalised viability (CAL-51 [16]) | normalised viability (SK-BR-3) | normalised viability (Hs578T [17]) | normalised viability (CAL-120 [18]) | normalised viability (DU-4475 [19]) | normalised viability (HDQ-P1 [20]) | normalised viability (MDA-MB-468) | normalised viability (CAL-120 [21]; 10 nM) | normalised viability (CAL-120 [21]; 1000 nM) | normalised viability (CAL-120 [21]; 10000 nM) | drug sensitivity score (BT-549 [22])
1 | CN(C)C(=N)NC(=N)N [Metformin] | 0 | 0 | 0 | 1.75 | 0 | 8.43 | 4.84 | 0 | 0 | – | – | – | – | – | – | – | – | – | – | – | – | – | – | – | – | – | – | – | – | – | –
2 | COc1c2occc2cc2ccc(=O)oc12 [Methoxsalen] | – | – | – | – | – | – | – | – | – | 99.5% | 92.9% | 100% | 106% | 104% | 103% | 109% | 104% | 100% | 115% | 95.2% | 105% | 98.6% | 102% | 106% | 95.5% | 99.3% | 104% | 99.1% | 101% | 104% | –
3 | CO[C@@H]1[C@H](N(C)C(=O)c2ccccc2)C[C@H]2O[C@]1(C)n1c3ccccc3c3c4c(c5c6ccccc6n2c5c31)C(=O)NC4 [Midostaurin] | – | 0 | 7.87 | 0 | 0 | 29.9 | 11.5 | 0 | 1.96 | 107% | 108% | 103% | 134% | 101% | 85.6% | 88.1% | 82.8% | 103% | 114% | 85.7% | 91.9% | 102% | 82.2% | 107% | 103% | 85.3% | 112% | 126% | 55.4% | 44.9% | 12.6
